From US20100178362A1, “CHROMIUM COMPLEXES FOR IMPROVEMENT OF MEMORY AND COGNITIVE FUNCTION” (priority 2007, published 2010)
Like-named read-outs stand apart in the source and are kept apart here.

Key:
rats = conditions: cited from earlier work
[1] = system: spatial learning and memory; experiment: Morris Water Maze test of spatial learning and memory; type: in vivo, male Wistar rats; conditions: for Improvement of spatial learning and/or memory: control animals and insulin-resistant animals; for Escape latency compared to controls: treatment for twelve weeks
From the text: 8-week old, male, Wistar rats were divided into eight groups: four control groups (C) and four insulin-resistant groups (HFD). Insulin resistance was induced in by feeding the rats a high-fat diet (40% of calories as fat). The four groups in the control and insulin-resistant groups included: a no treatment group, a 14.3 mcg chromium picolinate group (CrPic), a 19.7 mcg chromium histidinate group (CrHis), and a 7.15 chromium picolinate and 9.85 chromium histidinate group (CrPic+CrHis). Four rats were assigned to each of the eight groups. Treatments were administered for twelve weeks.
Spatial learning and memory were then tested using the Morris Water Maze test. Rats were placed in a circular water tank (120 cm diameter, 50 cm height) that was partially filled with water (25° C.). Milk powder was used to render the water opaque. Each rat was acclimated to the task with two days of free-swimming in the pool with no platform. […] Distal spatial cues were provided and kept constant throughout the testing, such that the rats could use the cues to find the platform. Rats were given 60 seconds to find the platform during each trial. The escape latency was defined as the time required for the rat to find a hidden platform.
A probe trial was performed in which the hidden platform was removed from the pool, and the animal was allowed to swim for 60 seconds. Typically, a rat will swim in a quadrant of the pool where the platform was previously hidden.

HFD/STZ-treated rats = experiment: Rat model of type 2 diabetes (high-fat diet + streptozotocin): chromium, carbohydrate metabolism and serotonergic properties; type: in vivo, male Sprague-Dawley rats; set-up: Cortisol: unit not given here
Description: An animal model of type 2 diabetes was produced by feeding male Sprague-Dawley rats (n=33) with a high-fat diet (HFD, 40% Kcal from fat) for 2 weeks, then intraperitoneally administering streptozotocin (STZ, 40 mg/kg). The HFD/STZ-treated rats were then administered 80 mcg chromium picolinate/kg body weight/day for 10 weeks. Chromium picolinate was obtained from Nutrition 21, Purchase, N.Y. Untreated Sprague-Dawley (standard control diet) and HFD/STZ-treated rats not administered chromium picolinate served as controls.
Chromium picolinate administration to HFD/STZ treated rats increased brain chromium levels and improved all measurements or carbohydrate metabolism and serotonergic properties.

cerebral activation = experiment: fMRI during working memory (visual-spatial n-back) task in trial subjects with Mild Cognitive Impairment; type: in vivo, men and women
Description: (§1) A randomized, double blind, placebo-controlled trial is conducted to evaluate the efficacy of chromium picolinate in producing enhancements of neuropsychological function in men and women with Mild Cognitive Impairment. Changes in indices of glucose metabolism and in salivary cortisol levels also are measured to gather exploratory information concerning potential mechanisms by which the intervention produces its effects. The subjects participate in a 12-week protocol with major assessments of neuropsychological and biological measures at pre-treatment baseline and during the final week of the intervention. In addition, a brief interim evaluation of neurocognitive function is conducted at 6 weeks to gather information that to assess trends and acute response. Mood, as a potential covariate of the neurobehavioral outcome measures, is also assessed. Overall diet and consumption of other supplements are assessed with diet diaries at different phases of the intervention. Compliance and adverse responses are monitored throughout the period of the intervention by means of weekly telephone contacts.
(§2) Chromium picolinate: The chromium supplement is provided by Nutrition21, Purchase, N.Y., a major distributor of the chromium picolinate supplement form. A single capsule 1000 mcg dose is administered to subjects receiving the chromium treatment with the morning meal each day for the duration of the intervention. Similar appearing placebo capsules are administered in a similar manner to subjects receiving the placebo treatment.
A neuropsychological protocol is administered and fMRI scans are obtained before and after treatments using a Varian INOVA 4 Tesla scanner. Two runs of BOLD EPI, 30 contiguous 5 mm coronal slices are acquired. Images are obtained while subjects performed the NIH visual-spatial n-back task with 0- and 1-back blocks. There are 20, 1.5 s trials per block; each block repeated 6 times. Image analyses are performed using AFNI and included co-registration, motion correction, blur, normalization, and event-related analysis. […]

motor speed = experiment: Trail-Making task in trial subjects with Mild Cognitive Impairment; type: in vivo, men and women
Description: as §1
(§3) Chromium picolinate: The chromium supplement is provided by Nutrition21, Purchase, N.Y., a major distributor of the chromium picolinate supplement form. […]

[2] = Placebo-controlled trial in Mild Cognitive Impairment: chromium to creatinine ratio; type: in vivo, men and women
Description: as §1, §3

memory function = experiment: California Verbal Learning Test in trial subjects with Mild Cognitive Impairment; type: in vivo, men and women
Description: as §1
California Verbal Learning Test: The California Verbal Learning Test (CVLT) is among the best designed of a number of list learning procedures used to assess memory consolidation ability. It provides data on learning rate or efficiency, interference effects, recall, and recognition memory. Reliability and validity data are adequate and well established. Our data with a middle-aged sample indicated a trend for recall and recognition memory effects on this procedure.
as §2

[3] = control rats (C), FIGS. 1A and 1C
[4] = 80 mcg chromium picolinate/kg body weight/day for 10 weeks, mean ± SD
[5] = 80 mcg/kg body weight/day for 10 weeks
[6] = Study 1: 1000 mcg elemental chromium daily, 12 weeks, v placebo, effect size moderate
[7] = as printed under Results - Study 2

## [Cl][Cr]([Cl])[Cl] [chromium chloride]
rats; rats, levels several thousand times the upper limit of the human ESADDI for chromium (based on body weight)
  Toxic effects: without toxic effects

## chromium histidinate
[1]
  Improvement of spatial learning and/or memory: effective in improving spatial learning and/or memory
[1]; [3]
  Escape latency compared to controls: significantly shorter escape latencies on day 3
[1]; insulin-resistant rats (HFD), FIGS. 1B and 1D
  Escape latency compared to controls: significantly shorter escape latencies on days 3 and 5

## chromium picolinate
HFD/STZ-treated rats; [4]
  CISI (insulin sensitivity): 1.3 ± 0.04
  Chromium - Brain: 22.6 ± 1.2 ng/g
  Cortisol: 11.5 ± 0.4
  Glucose: 287.0 ± 2.7 mg/dL
  Insulin Brain: 8.9 ± 2.0 ng/g
  Insulin Serum: 25.9 ± 0.5 uU/mL
  Melatonin: 16.3 ± 0.2 µg/g
  Serotonin Brain: 520.3 ± 4.1 µg/g
  Serotonin Serum: 174.9 ± 2.5 mg/dL
  Tryptophan Brain: 5.5 ± 0.2 µg/g
  Tryptophan Serum: 16.1 ± 0.3 mg/dL
HFD/STZ-treated rats; [5]
  Insulin resistance compared to the HFD/STZ group: reduced
  Tolerability / adverse events: well tolerated without any adverse events
Cerebral activation; Study 1: individual subjects, increasing working memory load
  fMRI activation pattern, pre- v post-intervention scans: increasing activation in left frontal and left parietal cortices
Cerebral activation; Study 2: n-back task in the scanner, v placebo
  Performance on the working memory task: not reflected in differential performance
Cerebral activation; Study 2: right thalamic, right temporal, right posterior parietal and bilateral frontal regions, p=0.005 corrected
  fMRI activation relative to placebo treated subjects: greater activation
Motor speed; [6]
  Motor speed on the Trail-Making task: trend for enhanced motor speed
Motor speed; as printed under Results - Study 2, sentence breaks off
  Motor speed: trend for enhanced motor
[2]; Study 1: 1000 mcg elemental chromium daily for 12 weeks (n=11) v placebo (n=10), F=8.85, p=0.008
  Chromium to creatinine ratios at treatment termination: significantly elevated
[2]; Study 2: 1000 mcg elemental chromium daily for 12 weeks (n=9) v placebo (n=4), F=8.86, p<0.0001
  Chromium to creatinine ratios at treatment termination: elevated
Memory function; Study 1: 1000 mcg elemental chromium daily, 12 weeks, v placebo
  Accuracy of memory on the California Verbal Learning Test: No group differences
Memory function; [6]
  Semantic interference (free recall intrusions): trend for reduced semantic interference
Memory function; Study 2: administered outside the scanner, relative to the placebo group
  Intrusion errors on the California Verbal Learning Test: reduced intrusion errors
Memory function; [7]
  Accuracy of memory on the California Verbal Learning Test: No group differences
  Semantic interference: trend for reduced semantic interference
[1]
  Improvement of spatial learning and/or memory: effective in improving spatial learning and/or memory
[1]; [3]
  Escape latency compared to controls: significantly shorter escape latencies on day 3
rats; rat, in vivo
  Toxic effects: without toxic effects
